Reference: US20150105252A1, “SUBSTITUTED PYRAZOLES AS HERBICIDES” (E I DU PONT DE NEMOURS AND COMPANY, priority 2013, published 2015)

How the values were obtained:
barnyardgrass [1] = test: Test B flood; format: in vivo, Echinochloa crus-galli; settings: 250 g ai/ha, visual rating on 0 to 100 scale (0 no effect, 100 complete control), 13 to 15 days
Summary of the method: (§1)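 Paddy-water application: seedlings at 2-leaf stage, flood depth 3 cm maintained for the test duration. Evaluation after 13–15 days in the greenhouse by eye relative to controls; 0–100 scale.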

pigweed [2] = test: Test A preemergence; format: in vivo, Amaranthus retroflexus; settings: preemergence; for Pigweed plant response rating (0 to 100 scale): 125 g ai/ha, visual injury approx. 10 days after treatment; for Pigweed plant response rating: 500 g ai/ha, visual injury after approx. 10 days, 0 to 100 scale (0 no effect, 100 complete control)
Summary of the method: (§2)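 Pre- and postemergence greenhouse test; loam+sand; cpd in non-phytotox. solvent/surfactant; post at 1–2 leaf, 2–10 cm; visual score ~10 d, 0 = none, 100 = complete control.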

velvetleaf [3] = test: Test A preemergence; format: in vivo, Abutilon theophrasti; settings: preemergence; for Velvetleaf plant response rating (0 to 100 scale): 125 g ai/ha, visual injury approx. 10 days after treatment; for Velvetleaf plant response rating: 500 g ai/ha, visual injury after approx. 10 days, 0 to 100 scale (0 no effect, 100 complete control)
Summary of the method: as §2

ducksalad [4] = test: Test B flood; format: in vivo, Heteranthera limosa; settings: 250 g ai/ha, visual rating on 0 to 100 scale (0 no effect, 100 complete control), 13 to 15 days
Summary of the method: as §1

pigweed [5] = test: Test A postemergence; format: in vivo, Amaranthus retroflexus
Summary of the method: as §2

wheat [6] = test: Test A preemergence; format: in vivo, Triticum aestivum; settings: preemergence; for Wheat plant response rating (0 to 100 scale): 125 g ai/ha, visual injury approx. 10 days after treatment; for Wheat plant response rating: 500 g ai/ha, visual injury after approx. 10 days, 0 to 100 scale (0 no effect, 100 complete control)
Summary of the method: as §2

crabgrass, large [7] = test: Test A postemergence; format: in vivo, Digitaria sanguinalis
Summary of the method: as §2

ducksalad [8] = test: Test C flooded paddy test; format: in vivo, Heteranthera limosa; settings: Flood
Summary of the method: (§3)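 Pots were flooded to 3 cm above the soil surface at treatment, compound applied directly to the paddy water, and that depth held throughout. Plants were kept in a greenhouse for 13 to 15 days, then visually rated against untreated controls.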

morningglory [9] = test: Test A preemergence; format: in vivo, Ipomoea spp.; settings: preemergence; for Morningglory plant response rating (0 to 100 scale): 125 g ai/ha, visual injury approx. 10 days after treatment; for Morningglory plant response rating: 500 g ai/ha, visual injury after approx. 10 days, 0 to 100 scale (0 no effect, 100 complete control)
Summary of the method: as §2

sedge, umbrella [10] = test: Test C flooded paddy test; format: in vivo, Cyperus difformis; settings: Flood
Summary of the method: as §3

barnyardgrass [11] = test: Test C flooded paddy test; format: in vivo, Echinochloa crus-galli; settings: Flood
Summary of the method: as §3

wheat [12] = test: Test A postemergence; format: in vivo, Triticum aestivum
Summary of the method: as §2

barnyardgrass [13] = test: Test A preemergence; format: in vivo, Echinochloa crus-galli; settings: preemergence
Summary of the method: as §2

corn [14] = test: Test A preemergence; format: in vivo, Zea mays; settings: preemergence; for Corn plant response rating (0 to 100 scale): 125 g ai/ha, visual injury approx. 10 days after treatment; for Corn plant response rating: 500 g ai/ha, visual injury after approx. 10 days, 0 to 100 scale (0 no effect, 100 complete control)
Summary of the method: as §2

sedge, umbrella [15] = test: Test B flood; format: in vivo, Cyperus difformis; settings: 250 g ai/ha, visual rating on 0 to 100 scale (0 no effect, 100 complete control), 13 to 15 days
Summary of the method: as §1

rice [16] = test: Test B flood; format: in vivo, Oryza sativa; settings: 250 g ai/ha, visual rating on 0 to 100 scale (0 no effect, 100 complete control), 13 to 15 days
Summary of the method: as §1

rice [17] = test: Test C flooded paddy test; format: in vivo, Oryza sativa; settings: Flood
Summary of the method: as §3

foxtail, giant [18] = test: Test A postemergence; format: in vivo, Setaria faberii
Summary of the method: as §2

barnyardgrass [19] = test: Test A postemergence; format: in vivo, Echinochloa crus-galli
Summary of the method: as §2

crabgrass, large [20] = test: Test A preemergence; format: in vivo, Digitaria sanguinalis; settings: preemergence; for Crabgrass, Large plant response rating (0 to 100 scale): 125 g ai/ha, visual injury approx. 10 days after treatment; for Crabgrass, Large plant response rating: 500 g ai/ha, visual injury after approx. 10 days, 0 to 100 scale (0 no effect, 100 complete control)
Summary of the method: as §2

morningglory [21] = test: Test A postemergence; format: in vivo, Ipomoea spp.
Summary of the method: as §2

velvetleaf [22] = test: Test A postemergence; format: in vivo, Abutilon theophrasti
Summary of the method: as §2

foxtail, giant [23] = test: Test A preemergence; format: in vivo, Setaria faberii; settings: preemergence; for Foxtail, Giant plant response rating (0 to 100 scale): 125 g ai/ha, visual injury approx. 10 days after treatment; for Foxtail, Giant plant response rating: 500 g ai/ha, visual injury after approx. 10 days, 0 to 100 scale (0 no effect, 100 complete control)
Summary of the method: as §2

corn [24] = test: Test A postemergence; format: in vivo, Zea mays
Summary of the method: as §2

[25] = Postemergence, 500 g ai/ha, 0 to 100 scale (0 no effect, 100 complete control)
[26] = postemergence, 125 g ai/ha, about 10 days, visual rating on 0 to 100 scale (0 no effect, 100 complete control)
[27] = 31 g ai/ha, scale 0 to 100 (0 no effect, 100 complete control)
[28] = 62 g ai/ha, scale 0 to 100 (0 no effect, 100 complete control)
[29] = 125 g ai/ha, visual injury, 0 to 100 scale, approx. 10 days
[30] = 500 g ai/ha, visual injury after approx. 10 days, 0 to 100 scale (0 no effect, 100 complete control)

CCc1cc(C(=O)NC(C)C)nn1Cc1ccnc(OCC(F)(F)F)c1 [Compound 149]
95: Plant response rating, Ducksalad (ducksalad [4]) | Plant response rating, Sedge, Umbrella (sedge, umbrella [15])
80: Pigweed plant response rating (0 to 100 scale) (pigweed [2]) | Plant response rating, Sedge, Umbrella (sedge, umbrella [10]; 125 g ai/ha, scale 0 to 100) | Foxtail, Giant plant response rating (foxtail, giant [18]; [25]) | Barnyardgrass plant response rating (barnyardgrass [19]; [25]) | Corn plant response rating (corn [24]; [25])
70: Plant response rating, Ducksalad (ducksalad [8]; 125 g ai/ha, scale 0 to 100) | Plant response rating, Sedge, Umbrella (sedge, umbrella [10]; [28]) | Foxtail, Giant plant response rating (foxtail, giant [18]; [26]) | Foxtail, Giant plant response rating (0 to 100 scale) (foxtail, giant [23])
20: Velvetleaf plant response rating (0 to 100 scale) (velvetleaf [3]) | Wheat plant response rating (wheat [12]; [26])
30: Plant response rating, Barnyardgrass (barnyardgrass [1]) | Corn plant response rating (corn [14]) | Barnyardgrass plant response rating (barnyardgrass [19]; [26]) | Velvetleaf plant response rating (velvetleaf [22]; [26])
0: Wheat plant response rating (0 to 100 scale) (wheat [6]) | Plant response rating, Ducksalad (ducksalad [8]; [27]) | Plant response rating, Barnyardgrass (barnyardgrass [11]; [27]) | Plant response rating, Barnyardgrass (barnyardgrass [11]; [28]) | Plant response rating, Barnyardgrass (barnyardgrass [11]; 125 g ai/ha, scale 0 to 100) | Corn plant response rating (0 to 100 scale) (corn [14]) | Plant response rating, Rice (rice [17]; [27]) | Plant response rating, Rice (rice [17]; [28]) | Plant response rating, Rice (rice [17]; 125 g ai/ha, scale 0 to 100)
50: Wheat plant response rating (wheat [6])
60: Plant response rating, Sedge, Umbrella (sedge, umbrella [10]; [27]) | Wheat plant response rating (wheat [12]; [25]) | Barnyardgrass plant response rating (barnyardgrass [13]; [30]) | Morningglory plant response rating (morningglory [21]; [26])
10: Morningglory plant response rating (0 to 100 scale) (morningglory [9]) | Barnyardgrass plant response rating (barnyardgrass [13]; [29]) | Plant response rating, Rice (rice [16])
55: Plant response rating, Ducksalad (ducksalad [8]; [28])
40: Crabgrass, Large plant response rating (crabgrass, large [7]; [26]) | Corn plant response rating (corn [24]; [26])
90: Velvetleaf plant response rating (velvetleaf [3]) | Pigweed plant response rating (pigweed [5]; [26]) | Crabgrass, Large plant response rating (crabgrass, large [7]; [25]) | Velvetleaf plant response rating (velvetleaf [22]; [25])
100: Pigweed plant response rating (pigweed [2]) | Pigweed plant response rating (pigweed [5]; [25]) | Morningglory plant response rating (morningglory [9]) | Crabgrass, Large plant response rating (0 to 100 scale) (crabgrass, large [20]) | Crabgrass, Large plant response rating (crabgrass, large [20]) | Morningglory plant response rating (morningglory [21]; [25]) | Foxtail, Giant plant response rating (foxtail, giant [23])

CCCNC(=O)c1cc(COC)n(Cc2ccnc(C(F)(F)F)c2)n1 [Compound 168]
0: Plant response rating, Ducksalad (ducksalad [8]; [27]) | Plant response rating, Sedge, Umbrella (sedge, umbrella [10]; [27]) | Plant response rating, Barnyardgrass (barnyardgrass [11]; [27]) | Plant response rating, Barnyardgrass (barnyardgrass [11]; [28]) | Plant response rating, Barnyardgrass (barnyardgrass [11]; 125 g ai/ha, scale 0 to 100) | Wheat plant response rating (wheat [12]; [26]) | Corn plant response rating (0 to 100 scale) (corn [14]) | Plant response rating, Rice (rice [17]; [27]) | Plant response rating, Rice (rice [17]; [28]) | Plant response rating, Rice (rice [17]; 125 g ai/ha, scale 0 to 100)
100: Pigweed plant response rating (0 to 100 scale) (pigweed [2]) | Pigweed plant response rating (pigweed [2]) | Velvetleaf plant response rating (velvetleaf [3]) | Pigweed plant response rating (pigweed [5]; [25]) | Morningglory plant response rating (morningglory [9]) | Barnyardgrass plant response rating (barnyardgrass [13]; [30]) | Crabgrass, Large plant response rating (0 to 100 scale) (crabgrass, large [20]) | Crabgrass, Large plant response rating (crabgrass, large [20]) | Morningglory plant response rating (morningglory [21]; [25]) | Foxtail, Giant plant response rating (foxtail, giant [23])
40: Wheat plant response rating (wheat [12]; [25]) | Velvetleaf plant response rating (velvetleaf [22]; [26])
90: Plant response rating, Ducksalad (ducksalad [4]) | Crabgrass, Large plant response rating (crabgrass, large [7]; [25]) | Plant response rating, Sedge, Umbrella (sedge, umbrella [15]) | Foxtail, Giant plant response rating (foxtail, giant [18]; [25]) | Barnyardgrass plant response rating (barnyardgrass [19]; [25]) | Foxtail, Giant plant response rating (0 to 100 scale) (foxtail, giant [23])
20: Plant response rating, Barnyardgrass (barnyardgrass [1]) | Velvetleaf plant response rating (0 to 100 scale) (velvetleaf [3]) | Barnyardgrass plant response rating (barnyardgrass [13]; [29]) | Corn plant response rating (corn [14]) | Plant response rating, Rice (rice [16]) | Corn plant response rating (corn [24]; [26])
50: Plant response rating, Ducksalad (ducksalad [8]; [28]) | Plant response rating, Sedge, Umbrella (sedge, umbrella [10]; [28]) | Barnyardgrass plant response rating (barnyardgrass [19]; [26])
70: Wheat plant response rating (wheat [6]) | Plant response rating, Ducksalad (ducksalad [8]; 125 g ai/ha, scale 0 to 100) | Morningglory plant response rating (morningglory [21]; [26]) | Velvetleaf plant response rating (velvetleaf [22]; [25])
80: Pigweed plant response rating (pigweed [5]; [26]) | Morningglory plant response rating (0 to 100 scale) (morningglory [9]) | Plant response rating, Sedge, Umbrella (sedge, umbrella [10]; 125 g ai/ha, scale 0 to 100) | Corn plant response rating (corn [24]; [25])
10: Wheat plant response rating (0 to 100 scale) (wheat [6])
60: Crabgrass, Large plant response rating (crabgrass, large [7]; [26]) | Foxtail, Giant plant response rating (foxtail, giant [18]; [26])
